# Laboratory results taken from patent US8114645B2 (priority 2006, dated 2012).
# Where two headings read alike, the source gives them in different places.
# What was measured:
# [1] = test system: E. coli DP10 expressing MevT gene constructs; experiment: Fatty acid supplementation of growth inhibited cells, 96-well plates, OD; format: cell-based; conditions: 100 μg/ml fatty acid with 400 μg/ml Brij, defined C medium, 96-well plate, arabinose induced; for growth of MevT expressing cells (pBad33MevT): E. coli DP10 pBad33MevT; for growth of cells containing pHMGS: E. coli DP10 pHMGS
# Method: Media components and chemicals were purchased from Sigma-Aldrich (St. Louis, Mo.) and Fisher Scientific (Pittsburgh, Pa.). For cloning and propagation of E. coli strains harboring the various recombinant pathways, Luria broth with Miller's modification (Sigma) was used with appropriate antibiotics for plasmid selection and 0.06% glucose for the repression of PBAD and PLAC promoter systems. DL-mevalonate used for media supplementation was prepared by mixing 1 volume of 2 M DL-mevalonic acid lactone (Sigma-Aldrich) with 1.02 volumes of 2 M KOH and incubating at 37° C. for 30 min. Campos et al. (2001) Biochem J 353, 59-67. […] Enzymes for molecular biology were purchased from New England Biolabs (Beverly, Mass.) and Invitrogen. E. coli strains TOP 10 and DH10B, both from Invitrogen, were used for cloning and plasmid construction.
# The optical density of samples taken from cultures in baffled flasks was measured using a UV-Spectrophotometer (Beckman), while the OD600 of cultures in 96-well microtiter plates was measured using a microtiter plate reader (SpectraMax, Molecular Devices).
# E. coli DP10 cells harboring pBad33, pBad33MevT, pMevT(C159A), pHMGS, or pHMGSR were incubated and induced in 96-well plates in fully defined C medium containing 50 μg/ml chloramphenicol (see material and methods) with supplemental cis-Δ^9-18:1, 16:0, cis-Δ^9-16:1, or a equal mass mixture of 16:0 and cis-Δ^9-16:1. […] Overnight starter cultures were used to inoculate fresh C medium in a 96-well microtiter plate.
# [2] = test system: E. coli DP10 containing pBad33MevT, pHMGS or inactive controls; experiment: Cell growth with increased supplementation of saturated fatty acid 16:0, baffled shake flasks, OD600; format: cell-based
# [3] = test system: E. coli strains carrying a temperature sensitive fabD allele; conditions: Harder et al. 1972, 1974; cited from earlier work
# [4] = test system: E. coli DH10B harboring pBad33MevT or pBad33; conditions: LB with 10 g/L NaCl vs 0.5 g/L NaCl
# Method: To further test if cells inhibited by the accumulation of HMG-CoA are suffering from osmotic stress, cells harboring pBad33MevT or pBad33 (the empty vector control) were incubated and induced in Luria Broth (LB) media with low (0.5 g/L) and high (10 g/L) concentrations of NaCl. […] Both culture media were supplemented with 1% (wt/vol) glycerol and 50 μg/ml chloramphenicol. Starter cultures of DH10B harboring either pBad33MevT or pBad33 were inoculated from single colonies and incubated overnight at 37° C. in LB media supplemented with 0.06% glucose (to repress the PBAD promoter) and chloramphenicol. Overnight starter cultures were diluted to an OD600 of 0.05 in either the low or high NaCl media in baffled shake flasks, incubated at 37° C. with continuous shaking and induced with the addition of 2 mM arabinose at an OD600 of approximately 0.39. The optical density of the culture was measured using a UV-Spectrophotometer (Beckman).
# [5] = test system: temperature sensitive mutants of fabB; conditions: Broekman and Steenbakkers 1973; cited from earlier work
# [6] = test system: E. coli DH10B containing plasmids pMevT, pMBIS, and pADS; experiment: Amorpha-4,11-diene production assay with mevalonate supplementation (GC-MS of dodecane overlay); format: cell-based; conditions: exogenous mevalonate added, tested up to 20 mM D,L-mevalonate; vs no supplementation
# Method: Amorpha-4,11-diene production from E. coli strains expressing the full heterologous mevalonate pathway and amorphadiene synthase with or […] supplementation was assayed. E. coli DH10B containing plasmids pMevT, pMBIS, and pADS (FIGS. 5A and 5B) were grown in C medium containing 3.4% glycerol, 1% Casamino acids (BD, Franklin Lakes, N.J.), micronutrients, 50 μg/ml carbenicillin, 5 μg/ml tetracycline, and 25 μg/ml chloramphenicol with varying concentrations of exogenous mevalonate. […] Prior to inoculation, an overlay of 20% (v/v) dodecane (Sigma) was added to each culture flask to trap the volatile sesquiterpene product. […]
# Dodecane/ethyl acetate extracts were analyzed on a Hewlett-Packard 6890 gas chromatograph-mass spectrometer (GC/MS). […] The resolved samples were analyzed by a Hewlett-Packard model 5973 mass selective detector that monitored ions 189 and 204 m/z. […] Since pure standards of amorpha-4,11-diene are not currently available, the concentrations were quantified in terms of caryophyllene equivalents. A standard curve for caryophyllene was determined, based on a pure standard. […]
# To begin improving terpenoid production from engineered E. coli, limiting steps in the engineered pathway to amorphadiene were determined, as described in U.S. Pat. No. 7,183,089, U.S. Provisional Patent Application No. 60/802,266, Pitera et al. Metab Eng 9(2): 193-207 (2007), and as follows. […]
# [7] = test system: E. coli; experiment: Effect of extra-cellular mevalonate on growth of E. coli; format: cell-based; conditions: high extra-cellular concentrations
smiles,measurement,setting,value
"CCCCCCCCCCCCCCCC(=O)O [16:0, palmitic acid (hexadecanoic acid)]",growth of MevT expressing cells (pBad33MevT),[1],improved the growth
same,growth of cells containing pHMGS,[1],"clear, positive effect on the growth"
same,cell growth on increasing the concentration above 100 μg/ml,"[2]; 200 μg/ml vs 100 μg/ml, baffled shake flasks",no additional effect on cell growth
same,cell growth of the inactive pathway controls,"[2]; DP10 harboring pMevT(C159A) or pHMGS(C159A), 100 or 200 μg/ml",not affected
same,growth inhibition caused by high expression of the MevT operon,"[2]; E. coli DP10 pBad33MevT, 100 μg/ml with 400 μg/ml Brij, baffled shake flasks",completely alleviated the growth inhibition
same,growth of cells expressing HMGS alone,"[2]; E. coli DP10 pHMGS, 100 μg/ml with 400 μg/ml Brij, baffled shake flasks",only improving the growth
same,growth at non-permissive temperatures,[3],shown to grow at non-permissive temperatures
[Cl-].[Na+] [NaCl],growth of the empty vector control strain,[4]; DH10B containing pBad33,did not significantly affect
same,growth inhibition of E. coli cells expressing the MevT operon from pBad33MevT,"[4]; DH10B, 2 mM arabinose",effectively alleviated the growth inhibition
same,osmolality of the culture medium,culture medium containing NaCl at 0.5 g/L,about 125 mOsm/kg H2O
same,osmolality of the culture medium,culture medium containing NaCl at 10 g/L,about 452 mOsm/kg H2O
"CCCCCC/C=C\CCCCCCCC(=O)O [cis-Δ^9-16:1, palmitoleic acid]",growth of MevT expressing cells (pBad33MevT),[1],detrimental to the growth
same,growth of cells containing pHMGS,[1],detrimental to the growth
same,growth at non-permissive temperatures,[3],not
"CCCCCCCC/C=C\CCCCCCCC(=O)O [cis-Δ^9-18:1, oleic acid]",growth of MevT expressing cells (pBad33MevT),[1],"to a lesser extent, cis-Δ^9-18:1 improved the growth"
same,growth under non-permissive conditions,[5],can grow
CC(O)(CCO)CC(=O)O (stereo not drawn) [mevalonate],production of amorphadiene,[6],increased the production of amorphadiene
same,growth of E. coli,[7],no significant effect on the growth
